Test results reported in patent EP0549291A1, “Thymidylate synthase inhibitors” (TAKEDA CHEMICAL INDUSTRIES, LTD., priority 1991, dated 1993).
pIC50: −log10 of the molar value.

Columns and labels:
[1] = target: T1, thymidylate synthase (TS) (Mus musculus, UniProt P07607); assay: Assay of TS inhibitory activity; format: biochemical; settings: crude TS fraction from Meth A cells; [H³]dUMP, 37°C, 1 hour; read-out: TS inhibitory activity IC₅₀
T1 construct: A crude fraction of TS was prepared from Meth A fibrosarcoma (Meth A) cells subcultured in vitro; endogenous in cells; host or cells: Meth A fibrosarcoma cells (100,000 x g supernatant of ultrasonicated cells)
T1 sequence (P07607 whole entry): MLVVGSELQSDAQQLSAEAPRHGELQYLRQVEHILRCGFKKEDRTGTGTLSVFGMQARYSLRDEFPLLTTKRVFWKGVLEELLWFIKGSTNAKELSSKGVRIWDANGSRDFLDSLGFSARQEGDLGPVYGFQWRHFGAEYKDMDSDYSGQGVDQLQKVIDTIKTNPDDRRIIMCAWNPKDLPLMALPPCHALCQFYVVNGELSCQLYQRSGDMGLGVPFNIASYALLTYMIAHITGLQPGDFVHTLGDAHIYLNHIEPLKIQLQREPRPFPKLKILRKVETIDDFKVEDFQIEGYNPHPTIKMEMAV
Protocol: Assay of TS inhibitory activity
A crude fraction of TS was prepared from Meth A fibrosarcoma (Meth A) cells subcultured in vitro. For cell culture, Eagle's minimum essential medium (MEM, Nissui Pharmaceutical) containing 10% fetal bovine serum was used. Cells in the logarithmic growth phase were harvested, washed twice with phosphate buffered saline, suspended in 0.2 M sucrose and 0.01 M Tris-HCl buffer (pH 7.5), ultrasonicated, and centrifuged at 100,000 x g to obtain a supernatant. The protein concentration was determined using a protein dye reagent (Bio-Rad) with bovine γ-globulin as standard protein. Samples with a protein concentration of 100 mg/ml were prepared.
The enzymatic reaction was conducted as follows, using the method described by D. Roberts in Biochemistry 5, 3546 (1966), partially modified. The reaction mixture consisted of 0.058% formaldehyde, 6.78 mM sodium fluoride, 0.2 mM 2-mercaptoethanol, 6.24 mg/ml bovine serum albumin, 80 µM […] (dUMP), 80 µM tetrahydrofolic acid, 2 mg/ml crude TS fraction, and 0.173 M Tris-HCl buffer (pH 7.5). To this mixture was added a varying concentration of each Example compound. To 50 µl of each final mixture was added 540 KBq [H³]dUMP and the resultant mixture was incubated in a 96-well plate at 37°C for 1 hour. After completion of the incubation, 26.65% trichloroacetic acid and 3.33 mg/ml dUMP were added to stop the reaction and 220 µl of 11.4 mg/ml activated charcoal was added. The whole volume was centrifuged and the radioactivity in 100 µl of the supernatant was determined by the liquid scintillation method. Thus, the concentration required to cause 50% inhibition of TS activity (IC₅₀ value) was obtained.

[2] = test system: Meth A fibrosarcoma (Meth A) cells; assay: Assay of antiproliferative activity against Meth A fibrosarcoma (Meth A) cells; format: cell-based; settings: Mus musculus, 72 hours culture at 37°C and 5% CO₂, cell count with Coulter counter, mean of 3 wells, read-out: Meth A cell growth inhibitory activity IC₅₀
Protocol: Assay of antiproliferative activity against Meth A fibrosarcoma (Meth A) cells
Meth A cells (2 x 10⁴ cells/ml) prepared in the routine manner were seeded, 2.0 ml per well, in a 12-well plate and subjected to stationary culture at 37°C and 5% CO₂. Each Example compound dissolved at an appropriate concentration was serially diluted 1:2 to 1:10 with MEM (Nissui Pharmaceutical) and added in the medium and again the cells were subjected to stationary culture for 72 hours at 37°C and 5% CO₂. Then, the total cell count at each concentration was determined with a Coulter counter (Coulter Electronics, FL) and the mean value of 3 wells was expressed as cell count per milliliter. The concentration of each compound required to reduce the cell count of the untreated control group to 50% was regarded as the IC₅₀ value of the compound.

| SMILES | pIC50 [1] | pIC50 [2] |
| --- | --- | --- |
| Nc1nc(O)c2c(Cc3ccc(C(=O)N[C@@H](CCC(=O)O)C(=O)O)cc3)c[nH]c2n1 [Example 4, N-[4-(2-amino-4-hydroxy-7H-pyrrolo[2,3-d]pyrimidin-5-yl)methylbenzoyl]-L-glutamic acid] | – | 7.12 |
| CCC(c1ccc(C(=O)N[C@@H](CCC(=O)O)C(=O)O)cc1)c1c[nH]c2nc(N)nc(O)c12 (stereo partly drawn) [Example 12, N-[4-[1-(2-amino-4-hydroxy-7H-pyrrolo[2,3-d]pyrimidin-5-yl)propyl]benzoyl]-L-glutamic acid] | – | 7.41 |
| C=CC(c1ccc(C(=O)N[C@@H](CCC(=O)O)C(=O)O)cc1)c1c[nH]c2nc(N)nc(O)c12 (stereo partly drawn) [Example 14, N-[4-[1-(2-amino-4-hydroxy-7H-pyrrolo[2,3-d]pyrimidin-5-yl)-2-propenyl]benzoyl]-L-glutamic acid] | 7.43 | 7.04 |
| NCC(c1ccc(C(=O)N[C@@H](CCC(=O)O)C(=O)O)cc1)c1c[nH]c2nc(N)nc(O)c12 (stereo partly drawn) [Example 18, N-[4-[1-(2-amino-4-hydroxy-7H-pyrrolo[2,3-d]pyrimidin-5-yl)-2-aminoethyl]benzoyl]-L-glutamic acid] | – | 6.09 |

Further lines, with some results ahead:

| pIC50 [1] | SMILES | pIC50 [2] |
| --- | --- | --- |
| 6.07 | Cn1cc(Cc2ccc(C(=O)N[C@@H](CCC(=O)O)C(=O)O)cc2)c2c(O)nc(N)nc21 [Example 2, N-[4-(2-amino-4-hydroxy-7-methylpyrrolo-[2,3-d]pyrimidin-5-yl)methylbenzoyl]-L-glutamic acid] | – |
| 7.08 | Nc1nc2[nH]cc(Cc3ccc(C(=O)N[C@@H](CCC(=O)O)C(=O)O)s3)c2c(=O)[nH]1 [Example 6, N-[5-(2-amino-4-hydroxy-7H-pyrrolo[2,3-d]pyrimidin-5-yl)methyl-2-thenoyl]-L-glutamic acid] | 7.20 |
| 6.31 | Nc1nc(O)c2c(Cc3ccc(C(=O)N[C@@H](CCC(=O)O)C(=O)O)cc3F)c[nH]c2n1 [Example 8, N-[4-(2-amino-4-hydroxy-7H-pyrrolo[2,3-d]pyrimidin-5-yl)methyl-3-fluorobenzoyl]-L-glutamic acid] | 6.96 |
| 7.41 | CC(c1ccc(C(=O)N[C@@H](CCC(=O)O)C(=O)O)cc1)c1c[nH]c2nc(N)nc(O)c12 (stereo partly drawn) [Example 10, N-[4-[1-(2-amino-4-hydroxy-7H-pyrrolo[2,3-d]pyrimidin-5-yl)ethyl]benzoyl]-L-glutamic acid] | 7.18 |
| 6.23 | Nc1nc(O)c2c(C(C[N+](=O)[O-])c3ccc(C(=O)N[C@@H](CCC(=O)O)C(=O)O)cc3)c[nH]c2n1 (stereo partly drawn) [Example 16, N-[4-[1-(2-amino-4-hydroxy-7H-pyrrolo[2,3-d]pyrimidin-5-yl)-2-nitroethyl]benzoyl]-L-glutamic acid] | 7.03 |
